A short description of data set [1]: Drug uptake in spleen of chronic unpredictable mild stress C57BL/6 mouse model by PET imaging analysis. It counts as ADME, tissue-based. The note with it: in vivo.
Data set [2] is described as follows: Drug uptake in kidney of chronic unpredictable mild stress C57BL/6 mouse model by PET imaging analysis. It counts as ADME, tissue-based. The note with it: in vivo.
Data set [3] in a line: Drug uptake in liver of chronic unpredictable mild stress C57BL/6 mouse model by PET imaging analysis. It counts as ADME, tissue-based. Conditions: in vivo.
The nature of data set [4]: Drug uptake in heart of chronic unpredictable mild stress C57BL/6 mouse model by PET imaging analysis. It counts as ADME, tissue-based. Conditions: in vivo.
Data set [5] can be described thus: Drug uptake in lung of chronic unpredictable mild stress C57BL/6 mouse model by PET imaging analysis. It counts as ADME, tissue-based. Conditions: in vivo.
A short description of data set [6]: Drug uptake in striatum of chronic unpredictable mild stress C57BL/6 mouse model by PET imaging analysis. It counts as ADME, tissue-based. The note with it: in vivo.
Data set [7] can be described thus: Drug uptake in hippocampus of chronic unpredictable mild stress C57BL/6 mouse model by PET imaging analysis. It counts as ADME, tissue-based. Conditions: in vivo.
Data set [8] can be described thus: Drug uptake in hypothalamus of chronic unpredictable mild stress C57BL/6 mouse model by PET imaging analysis. It counts as ADME, tissue-based. The note with it: in vivo.
Data set [9] is described as follows: Cmax in C57BL/6 mouse at 20 mg/kg, ip by LC-MS/MS analysis. It counts as ADME, organism-based. The note with it: in vivo.
A short description of data set [10]: Tmax in C57BL/6 mouse at 20 mg/kg, ip by LC-MS/MS analysis. Conditions: in vivo. It counts as ADME, organism-based.
Data set [11] in a line: Half life in C57BL/6 mouse at 20 mg/kg, ip by LC-MS/MS analysis. It counts as ADME, organism-based. Conditions: in vivo.
The nature of data set [12]: MRT (0 to infinity) in C57BL/6 mouse at 20 mg/kg, ip by LC-MS/MS analysis. It counts as ADME, organism-based. Conditions: in vivo.
Data set [13] in a line: AUC (0 to infinity) in C57BL/6 mouse at 20 mg/kg, ip by LC-MS/MS analysis. It counts as ADME, organism-based. The note with it: in vivo.
Data set [14] is described as follows: […] bioavailability in C57BL/6 mouse at 20 mg/kg by LC-MS/MS analysis. It counts as ADME, organism-based. Conditions: in vivo.
Data set [15] is described as follows: Cmax in C57BL/6 mouse at 20 mg/kg, iv by LC-MS/MS analysis. Conditions: in vivo. It counts as ADME, organism-based.
Data set [16] in a line: Half life in C57BL/6 mouse at 20 mg/kg, iv by LC-MS/MS analysis. The note with it: in vivo. It counts as ADME, organism-based.
A short description of data set [17]: MRT (0 to infinity) in C57BL/6 mouse at 20 mg/kg, iv by LC-MS/MS analysis. It counts as ADME, organism-based. The note with it: in vivo.
Data set [18] can be described thus: AUC (0 to infinity) in C57BL/6 mouse at 20 mg/kg, iv by LC-MS/MS analysis. It counts as ADME, organism-based. Conditions: in vivo.
A short description of data set [19]: Drug concentration in brain of C57BL/6 mouse at 1 mg/kg, ip measured for 0.5 hrs by LC-MS/MS analysis. The note with it: read-out: Ct. It counts as ADME, organism-based.
Data set [20] in a line: Drug concentration in plasma of C57BL/6 mouse at 1 mg/kg, ip measured for 0.5 hrs by LC-MS/MS analysis. It counts as ADME, organism-based.
Data set [21] is described as follows: Ratio of drug concentration in brain to plasma of C57BL/6 mouse at 1 mg/kg, ip measured for 0.5 hrs by LC-MS/MS analysis. It counts as ADME, organism-based. Conditions: read-out: BPR.
Data set [22] can be described thus: Drug concentration in brain of C57BL/6 mouse at 1 mg/kg, ip measured for 1 hr by LC-MS/MS analysis. It counts as ADME, organism-based. The note with it: read-out: Ct.
Data set [23] in a line: Drug concentration in plasma of C57BL/6 mouse at 1 mg/kg, ip measured for 1 hr by LC-MS/MS analysis. It counts as ADME, organism-based.
Data set [24] is described as follows: Ratio of drug concentration in brain to plasma of C57BL/6 mouse at 1 mg/kg, ip measured for 1 hr by LC-MS/MS analysis. It counts as ADME, organism-based. Conditions: read-out: BPR.
Data set [25] is described as follows: Drug concentration in brain of C57BL/6 mouse at 1 mg/kg, ip measured for 4 hrs by LC-MS/MS analysis. It counts as ADME, organism-based. Conditions: read-out: Ct.
A short description of data set [26]: Drug concentration in plasma of C57BL/6 mouse at 1 mg/kg, ip measured for 4 hrs by LC-MS/MS analysis. It counts as ADME, organism-based.
The nature of data set [27]: Ratio of drug concentration in brain to plasma of C57BL/6 mouse at 1 mg/kg, ip measured for 4 hrs by LC-MS/MS analysis. It counts as ADME, organism-based. Conditions: read-out: BPR.
Data set [28] concerns Mus musculus. Put plainly: Antidepressant activity in chronic unpredictable mild stress C57BL/6 mouse model assessed as shorter feeding latency to eat at 20 mg/kg, ip qd for 21 days by novelty-suppressed feeding test. The note with it: time 21.0 day. It counts as functional, organism-based.
The subject of data set [29] is Mus musculus. Put plainly: Antidepressant activity in chronic unpredictable mild stress C57BL/6 mouse model assessed as longer duration spent in central area of open field at 20 mg/kg, ip qd for 21 days by open field test. It counts as functional, organism-based. Conditions: time 21.0 day.
Data set [30] deals with Mus musculus. Put plainly: Antidepressant activity in chronic unpredictable mild stress C57BL/6 mouse model assessed as longer duration spent in central area at 20 mg/kg, ip qd for 21 days by open field test. It counts as functional, organism-based. The note with it: time 21.0 day.
For data set [31], the system named is Mus musculus. Put plainly: Antidepressant activity in chronic unpredictable mild stress C57BL/6 mouse model assessed as reduction in immobility time at 20 mg/kg, ip qd for 21 days by tail suspension test. Conditions: time 21.0 day. It counts as functional, organism-based.
Data set [32] is described as follows: Toxicity in chronic unpredictable mild stress C57BL/6 mouse model assessed as animal death at 20 mg/kg, ip qd for 21 days. It counts as organism-based. Conditions: in vivo, 504 h, time 21 day.
Data set [33] in a line: Toxicity in chronic unpredictable mild stress C57BL/6 mouse model assessed as histomorphological changes at 20 mg/kg, ip qd for 21 days. It counts as organism-based. Conditions: in vivo, 504 h, time 21 day.
Data set [34] can be described thus: Toxicity in chronic unpredictable mild stress C57BL/6 mouse model assessed as abnormality in organs at 20 mg/kg, ip qd for 21 days by H and E staining based analysis. It counts as organism-based. Conditions: in vivo, 504 h, time 21 day.
The nature of data set [35]: Toxicity in chronic unpredictable mild stress C57BL/6 mouse model assessed as damage in organs at 20 mg/kg, ip qd for 21 days by H and E staining based analysis. It counts as organism-based. Conditions: in vivo, 504 h, time 21 day.
Data set [36] has as its target T1, Protein deacetylase HDAC6 (Mus musculus) (UniProt Q9Z2V5).
T1 sequence (whole entry): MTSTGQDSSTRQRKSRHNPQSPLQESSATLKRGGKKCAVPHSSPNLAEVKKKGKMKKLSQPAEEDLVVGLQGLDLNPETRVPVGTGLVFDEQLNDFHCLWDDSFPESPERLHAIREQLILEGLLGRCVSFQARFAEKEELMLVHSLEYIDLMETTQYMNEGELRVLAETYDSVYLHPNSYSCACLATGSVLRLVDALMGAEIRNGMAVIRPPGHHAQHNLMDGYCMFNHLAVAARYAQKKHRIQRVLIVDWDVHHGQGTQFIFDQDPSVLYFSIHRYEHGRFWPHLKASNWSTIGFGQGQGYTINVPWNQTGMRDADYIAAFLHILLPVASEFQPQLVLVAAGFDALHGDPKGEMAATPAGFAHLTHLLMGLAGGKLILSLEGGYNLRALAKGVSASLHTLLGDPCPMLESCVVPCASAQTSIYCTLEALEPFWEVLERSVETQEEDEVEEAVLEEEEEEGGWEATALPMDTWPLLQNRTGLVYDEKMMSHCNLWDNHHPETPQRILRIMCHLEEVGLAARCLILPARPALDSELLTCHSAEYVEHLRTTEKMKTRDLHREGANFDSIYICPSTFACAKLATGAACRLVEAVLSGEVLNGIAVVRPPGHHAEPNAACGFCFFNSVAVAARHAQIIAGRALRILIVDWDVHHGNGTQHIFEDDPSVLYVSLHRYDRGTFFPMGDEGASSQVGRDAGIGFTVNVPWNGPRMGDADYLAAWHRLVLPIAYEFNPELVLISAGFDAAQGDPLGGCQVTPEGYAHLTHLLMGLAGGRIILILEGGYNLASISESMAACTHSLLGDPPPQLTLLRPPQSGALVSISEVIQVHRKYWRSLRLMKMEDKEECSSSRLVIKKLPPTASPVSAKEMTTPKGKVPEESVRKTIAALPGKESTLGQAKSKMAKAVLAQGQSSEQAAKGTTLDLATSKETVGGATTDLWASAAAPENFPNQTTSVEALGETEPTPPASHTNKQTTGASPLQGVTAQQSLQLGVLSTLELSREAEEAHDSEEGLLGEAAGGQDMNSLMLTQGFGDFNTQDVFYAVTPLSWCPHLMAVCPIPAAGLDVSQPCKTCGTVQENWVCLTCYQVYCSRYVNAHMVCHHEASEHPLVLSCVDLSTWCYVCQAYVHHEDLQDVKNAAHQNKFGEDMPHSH
Put plainly: In vivo inhibition of HDAC6 in brain of chronic unpredictable mild stress C57BL/6 mouse model by IHC analysis. It counts as functional, organism-based.

The species entered for data set [37] is Mus musculus. Put plainly: Upregulation of tubulin acetylation in brain of chronic unpredictable mild stress C57BL/6 mouse model by IHC analysis. It counts as functional, organism-based.

SMILES strings stand for the structures. Calls of active or inactive are those of the source.

As for `CN(Cc1ccc(C(=O)NO)cc1[18F])CC12CC3CC(CC(C3)C1)C2`, the Drug uptake entry in [1], in [2], in data set [3], in data set [4], in data set [5] and in data set [6] was “Active” in each case. The Drug uptake result in data set [7] and in data set [8] was “Active” throughout.

For `Cc1ccc2c(n1)N(Cc1ccc(C(=O)NO)cc1F)CCC2`, the Cmax in [9] was determined as 1510 ng/mL; in [15], 3600 ng/mL. The time to peak (Tmax) in data set [10] stood at 4.98 min. The half-life in data set [11] is 54.6 min; in data set [16] it was 33 min. Further, the values for the mean residence time MRT inf in data set [12] and in data set [17] were 24 min and 17.4 min, respectively. Moreover, the area under the curve AUC(0-inf) in data set [13] turned out to be 522 ng·h/mL; in data set [18] it was 1090 ng·h/mL. The compound further returned a bioavailability in [14] of 47.7%. Also, the concentration at 0.5 h in data set [19] worked out at 26.5 ng/mL; in data set [20], 3.3 ng/mL. The Kp at 0.5 h in [21] is 7.9. The concentration at 1 h in data set [22] was 10.3 ng/mL; in data set [23], 2.6 ng/mL. In [24], the Kp at 1 h is 3.9. In addition, the concentration at 4 h in data set [25] is 0.42 ng/mL; in data set [26], 0.21 ng/mL. In addition, in data set [27], the Kp at 4 h was 2.1. Also, the result in data set [28], in data set [29], in [30], in data set [31] and in data set [37] was Active. Moreover, the Activity result in data set [32], in [33], in data set [34] and in [35] was “Non-toxic” throughout. In addition, the inhibition result in [36] is “Active”.

The term Cmax denotes the highest concentration seen after dosing. By Tmax is commonly meant the time at which the peak concentration occurs. What is called half-life is the time needed for the level to fall by half in the phase considered. Broadly, the MRT inf is the average time that molecules of a dose stay in the body. A word on the AUC(0-inf): it is the area under the concentration-time curve extrapolated to infinity. A higher AUC(0-inf) goes with more exposure. As a reminder, the bioavailability is dose-corrected exposure relative to a reference, in per cent.

Values taken from ChEMBL document CHEMBL6092157, “PET imaging assist investigation of HDAC6 expression change in MDD and evaluating antidepressant efficacy of a newly developed HDAC6 inhibitor” (Eur J Med Chem, 2024).
